Measured values from PubChem BioAssay AID1259407 (Chemical Carcinogenesis Research Information System (CCRIS), 2018).
Active and inactive are the calls of the source. How the calls were made is not given here.

System: CCRIS mutagenicity, Ames/micronucleus/aberration tests
Test: CCRIS mutagenicity studies
[1] = Test System: AMES SALMONELLA TYPHIMURIUM, Strain/Indicator: TA97, Metabolic Activation: NONE, Method: STANDARD PLATE
[2] = Test System: AMES SALMONELLA TYPHIMURIUM, Strain/Indicator: TA98, Metabolic Activation: NONE, Method: STANDARD PLATE
[3] = Test System: AMES SALMONELLA TYPHIMURIUM, Strain/Indicator: TA100, Metabolic Activation: NONE, Method: STANDARD PLATE
[4] = Test System: AMES SALMONELLA TYPHIMURIUM, Strain/Indicator: TA102, Metabolic Activation: NONE
[5] = Test System: AMES SALMONELLA TYPHIMURIUM, Strain/Indicator: TA100, Metabolic Activation: RAT, LIVER, S-9, AROCLOR 1254, Method: STANDARD PLATE

COP(=S)(OC)Oc1ccc(Sc2ccc(OP(=S)(OC)OC)cc2)cc1
mutagenic call [1]: inactive; negative | mutagenic call (Test System: AMES SALMONELLA TYPHIMURIUM, Strain/Indicator: TA97, Metabolic Activation: S-9, Method: STANDARD PLATE): inactive; negative | mutagenic call [2]: inactive; negative | mutagenic call (Test System: AMES SALMONELLA TYPHIMURIUM, Strain/Indicator: TA98, Metabolic Activation: S-9, Method: STANDARD PLATE): inactive; negative | mutagenic call (Test System: AMES SALMONELLA TYPHIMURIUM, Strain/Indicator: TA98NR, Metabolic Activation: NONE, Method: STANDARD PLATE): active; positive | mutagenic call (Test System: AMES SALMONELLA TYPHIMURIUM, Strain/Indicator: TA98NR, Metabolic Activation: S-9, Method: STANDARD PLATE): active; positive | mutagenic call [3]: inactive; negative | mutagenic call (Test System: AMES SALMONELLA TYPHIMURIUM, Strain/Indicator: TA100, Metabolic Activation: S-9, Method: STANDARD PLATE): inactive; negative | mutagenic call (Test System: AMES SALMONELLA TYPHIMURIUM, Strain/Indicator: TA102, Metabolic Activation: NONE, Method: STANDARD PLATE): inactive; negative | mutagenic call (Test System: AMES SALMONELLA TYPHIMURIUM, Strain/Indicator: TA102, Metabolic Activation: S-9, Method: STANDARD PLATE): inactive; negative | mutagenic call (Test System: AMES SALMONELLA TYPHIMURIUM, Strain/Indicator: TA1535, Metabolic Activation: NONE, Method: STANDARD PLATE): active; positive | mutagenic call (Test System: AMES SALMONELLA TYPHIMURIUM, Strain/Indicator: TA1535, Metabolic Activation: S-9, Method: STANDARD PLATE): active; positive | mutagenic call (Test System: AMES SALMONELLA TYPHIMURIUM, Strain/Indicator: YG7104, Metabolic Activation: NONE, Method: STANDARD PLATE): active; positive | mutagenic call (Test System: AMES SALMONELLA TYPHIMURIUM, Strain/Indicator: YG7104, Metabolic Activation: S-9, Method: STANDARD PLATE): active; positive | mutagenic call (Test System: AMES SALMONELLA TYPHIMURIUM, Strain/Indicator: YG7108, Metabolic Activation: NONE, Method: STANDARD PLATE): inactive; negative | mutagenic call (Test System: AMES SALMONELLA TYPHIMURIUM, Strain/Indicator: YG7108, Metabolic Activation: S-9, Method: STANDARD PLATE): active; positive

CC(C)(Oc1ccc(C2CC2(Cl)Cl)cc1)C(=O)O (configuration not stated)
mutagenic call (Test System: AMES SALMONELLA TYPHIMURIUM, Strain/Indicator: TA98, Metabolic Activation: NONE): inactive; negative | mutagenic call (Test System: AMES SALMONELLA TYPHIMURIUM, Strain/Indicator: TA98, Metabolic Activation: RAT, LIVER, S-9, AROCLOR 1254): inactive; negative | mutagenic call [4]: inactive; negative | mutagenic call (Test System: AMES SALMONELLA TYPHIMURIUM, Strain/Indicator: TA102, Metabolic Activation: RAT, LIVER, S-9, AROCLOR 1254): inactive; negative | mutagenic call (Test System: AMES SALMONELLA TYPHIMURIUM, Strain/Indicator: TA104, Metabolic Activation: NONE): inactive; negative | mutagenic call (Test System: AMES SALMONELLA TYPHIMURIUM, Strain/Indicator: TA104, Metabolic Activation: RAT, LIVER, S-9, AROCLOR 1254): inactive; negative | mutagenic call (Test System: UDS RAT HEPATOCYTES, Strain/Indicator: BROMODEOXYURIDINE INCORP, Metabolic Activation: NONE, Method: FLOW CYTOMETRIC ANALYSIS): inactive; negative | mutagenic call (Test System: UDS RAT HEPATOCYTES, Strain/Indicator: THY INCORP, Metabolic Activation: NONE, Method: AUTORADIOGRAPHY): inactive; negative | mutagenic call (Test System: UDS RAT HEPATOCYTES, Strain/Indicator: THY INCORP, Metabolic Activation: NONE, Method: LIQUID SCINTILLATION COUNTING): inactive; negative

O=CNc1ccc(Oc2ccccc2)cc1
mutagenic call [3]: inactive; negative | mutagenic call (Test System: AMES SALMONELLA TYPHIMURIUM, Strain/Indicator: TA100, Metabolic Activation: RAT, LIVER, S-9, KANECLOR 500, Method: STANDARD PLATE): active; positive

Cc1ccc2ccc3ccccc3c2c1C
mutagenic call [2]: inactive; negative | mutagenic call (Test System: AMES SALMONELLA TYPHIMURIUM, Strain/Indicator: TA98, Metabolic Activation: RAT, LIVER, S-9, AROCLOR 1254, Method: STANDARD PLATE): inactive; negative | mutagenic call [3]: inactive; negative | mutagenic call [5]: inactive; negative

O=C/C(=C(\Cl)C(=O)O)C(Cl)Cl
mutagenic call [1]: inactive; negative | mutagenic call (Test System: AMES SALMONELLA TYPHIMURIUM, Strain/Indicator: TA97, Metabolic Activation: RAT, LIVER, S-9, PHENOBARBITAL, Method: STANDARD PLATE): inactive; negative | mutagenic call [2]: inactive; negative | mutagenic call (Test System: AMES SALMONELLA TYPHIMURIUM, Strain/Indicator: TA98, Metabolic Activation: RAT, LIVER, S-9, PHENOBARBITAL, Method: STANDARD PLATE): inactive; negative | mutagenic call [3]: active; positive | mutagenic call (Test System: AMES SALMONELLA TYPHIMURIUM, Strain/Indicator: TA100, Metabolic Activation: RAT, LIVER, S-9, PHENOBARBITAL, Method: STANDARD PLATE): inactive; negative

Cc1ccc2c(C)c3ccc4c(c3nc2c1)C=C[C@H](O)[C@H]4O
mutagenic call [5]: active; positive

CN=NC(C)(C)OO
mutagenic call (Test System: AMES SALMONELLA TYPHIMURIUM, Strain/Indicator: TA100, Metabolic Activation: NONE): active; positive | mutagenic call [4]: active; positive | mutagenic call (Test System: AMES SALMONELLA TYPHIMURIUM, Strain/Indicator: TA1535, Metabolic Activation: NONE): active; positive | mutagenic call (Test System: E. COLI, Strain/Indicator: WP2 (HCR-), Metabolic Activation: NONE): active; positive
